Test results from EP0410446A1, “(S)-5-hydroxydecanoic acid and its therapeutic composition” (MOCHIDA PHARMACEUTICAL CO., LTD., priority 1989, dated 1991).
Read-outs that look alike come from different tables or passages of the source.

What was measured:
[1] = test system: ATP regulated K⁺ channels; assay: Effect on ATP regulated K⁺ channels in guinea-pig cardiac cells (single channel recording, inside-out patch clamp, opening probability); format: cell-based; conditions: for Inhibition rate (%): Dose 3x10⁻⁴ M, single guinea-pig cardiac cells, inside-out patch, opening probability at 0 mV membrane potential
Experimental: According to the method described by Kakei, M., et al., ( J. Physiol., 363 441-462, 1985 ), single cardiac cells were prepared. Guinea-pigs were anesthetized with an intraperitoneally injection of pentobarbital sodium with 30 mg/kg and the chest was opened under artificial respiration. The aorta was cannulated in situ to perfuse the coronary arteries with Tyrode solution (NaCl 136.1, KCl 5.4, CaCl₂ 1.8, MgCl₂ 0.5, NaH₂PO₄ 0.33, glucose 5.5, N-2-hydroxyethylpiperazine-N′-2-ethanesulfonic acid (HEPES) 5.0, each in mM, and the pH was adjusted to 7.4 with NaOH), then the heart was dissected out and mounted on Langendorff apparatus to perfuse. After blood was washed out by Tyrode solution, the heart was perfused with the 100 ml of Ca²⁺-free Tyrode solution and then with Ca²⁺-free Tyrode solution containing 0.17 mg/ml collagenase for 5-20 minutes. Subsequently, the enzyme was washed out from the heart with the 100 ml of KB solution (taurine 10, oxalic acid 10, glutamic acid 80, KCl 25, KH₂PO₄ 10, HEPES 10, glucose 11, ethyleneglycolbis(β-aminoethylether)-N,N′-tetraacetic acid (EGTA) 0.5, each in mM, and the pH was adjusted to 7.4 with KOH) and the heart was stored in KB solution at 4°C for at least 1 hour. Before electrical recording, a part of ventricular muscle was dissected and was shaken in recording chamber (0.7 ml) filled with Tyrode solution to disperse each cells. The method of single channel electrical recording was essentially the same as described by Hamill, A., et al., (Pflugers Arch., 391 85-100, 1981 ). Glass electrodes were made from Pyrex glass capillaries by use of a puller (2 - 10 MΩ) and were heated to polish just before use. An electrode solution was KCl 5.4, NaCl 144.6, CaCl₂ 2, HEPES 5 (each in mM) and the pH was adjusted to 7.4 with NaOH. After dispersed cells sank and adhered to the bottom of recording chamber, high K⁺ solution (KCl 140, MgCl₂ 1.0, KH₂PO₄ 0.5, EGTA 1.0, HEPES 5.0, each in mM, and the pH was adjusted to 7.4 with KOH) was perfused at flow rate of 2 - 3 ml/minute. After established a high seal resistance (5 - 20 GΩ) obtained by attaching an electrode to a cell membrane and applying suction (0 - -50 cm H₂O), a channel current was detected by inside-out configuration by use of a patch clamp amplifier (8900, DAGAN) at a filter setting of 1 KHz. A channel current and a membrane potential were monitored by an oscilloscope and were recorded by a datarecorder. An opening probability, that is a ratio of channel opening period to recording period, were analyzed by using a p-CLAMP (AXON) at 0 mV of a membrane potential. Compounds were dissolved in high K⁺ solution to be perfused.

male ddY mice = format: in vivo; conditions: 1 g/kg, five male ddY mice, observed for one week
Description: Five male ddY mice weighting about 25 g were orally administered once or intraperitoneally injected once with 1 g/kg of sodium (S)-5-hydroxydecanoate.

Structure (SMILES)	Inhibition rate (%) [1] [%]	inhibitory effect on ATP regulated K⁺ channels compared with racemate ([1]; comparison of the values in table 1, 3x10⁻⁴ M)	Acute toxicity (abnormality, death) (male ddY mice; intraperitoneally injected once)	Acute toxicity (abnormality, death) (male ddY mice; orally administered once)	activity on ATP regulated K⁺ channels (in words) ([1]; summary of table 1, 3x10⁻⁴ M)
CCCCC[C@H](O)CCCC(=O)[O-].[Na+] [(S)-5-HD, sodium (S)-5-hydroxydecanoate]	69	about twice as good as racemate	no abnormality occurred and no animal died	no abnormality occurred and no animal died	–
CCCCC[C@@H](O)CCCC(=O)[O-].[Na+] [(R)-5-HD, Sodium 5-hydroxydecanoate]	10	–	–	–	few activity
CCCCCC(O)CCCC(=O)[O-].[Na+] (racemic) [(R,S)-5-HD, Sodium 5-hydroxydecanoate]	30	–	–	–	–
